Where only a bound is given, the exact number is not on record here.

This experiment addresses T1, human TRPC6 (Homo sapiens, UniProt Q9Y210).
T1 construct: expressed in transfected cells
T1 sequence (Q9Y210 1-931): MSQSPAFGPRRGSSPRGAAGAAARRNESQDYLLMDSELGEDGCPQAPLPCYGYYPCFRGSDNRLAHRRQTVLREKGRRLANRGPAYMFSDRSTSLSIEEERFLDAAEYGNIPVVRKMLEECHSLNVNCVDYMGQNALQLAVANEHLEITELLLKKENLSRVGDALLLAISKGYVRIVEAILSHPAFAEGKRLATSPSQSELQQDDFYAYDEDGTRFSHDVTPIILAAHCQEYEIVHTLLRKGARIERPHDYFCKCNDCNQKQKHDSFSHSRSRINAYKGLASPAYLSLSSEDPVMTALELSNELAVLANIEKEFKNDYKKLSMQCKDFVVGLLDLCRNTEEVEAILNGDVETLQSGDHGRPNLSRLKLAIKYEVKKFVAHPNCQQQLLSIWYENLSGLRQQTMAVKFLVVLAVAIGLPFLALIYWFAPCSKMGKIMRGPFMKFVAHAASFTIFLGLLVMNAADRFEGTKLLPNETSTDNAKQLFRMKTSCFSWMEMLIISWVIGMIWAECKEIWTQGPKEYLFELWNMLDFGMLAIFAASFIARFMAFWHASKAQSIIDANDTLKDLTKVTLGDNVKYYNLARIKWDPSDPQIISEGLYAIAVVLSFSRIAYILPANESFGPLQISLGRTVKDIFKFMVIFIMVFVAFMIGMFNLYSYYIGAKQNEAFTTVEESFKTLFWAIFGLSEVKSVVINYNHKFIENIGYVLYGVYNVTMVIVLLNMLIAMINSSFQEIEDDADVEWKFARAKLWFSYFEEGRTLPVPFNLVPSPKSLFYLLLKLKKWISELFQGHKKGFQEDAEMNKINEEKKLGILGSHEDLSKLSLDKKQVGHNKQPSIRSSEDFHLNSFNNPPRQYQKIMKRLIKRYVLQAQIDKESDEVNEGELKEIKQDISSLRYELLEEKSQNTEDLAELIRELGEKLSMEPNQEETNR
The experiment can be described thus: TRPC6 calcium flux assay (FLIPR, OAG-stimulated calcium influx). To be noted: HEK293 cells stably transfected with human TRPC6, read-out: hTRPC6 Potency. It counts as cell-based. The method in brief: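 IC50 derived by plotting background-corrected peak fluorescence (180 s window, normalized to OAG-triggered signal vs buffer) against dose. Stable human TRPC6 HEK293 line was dye-loaded, exposed to compound 25 min, then challenged with 50 uM final OAG in 2 mM Ca2+ HEPES buffer pH 7.2, 0.5% DMSO.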

Consider `CS(=O)(=O)CC1CCN(C(=O)Cn2c(N3CC[C@@H](F)[C@H](N)C3)nc3cc(F)c(F)cc32)C1` (stereo partly drawn) [Example 645, 2-(2-((3R,4R)-3-amino-4-fluoropiperidin-1-yl)-5,6-difluoro-1H-benzo[d]imidazol-1-yl)-1-(3-((methylsulfonyl)methyl)pyrrolidin-1-yl)ethanone], for which the IC50 was determined as 2300 nM. Next, `N[C@@H]1CN(c2nc3cc(F)c(F)cc3n2CC(=O)N2CCn3ncnc3C2)CC[C@H]1F` [Example 646, 2-(2-((3R,4R)-3-amino-4-fluoropiperidin-1-yl)-5,6-difluoro-1H-benzo[d]imidazol-1-yl)-1-(5,6-dihydro-[1,2,4]triazolo[1,5-a]pyrazin-7(8H)-yl)ethanone]: 2310 nM; `CC1(O)CCN(C(=O)Cn2c(N3CC[C@@H](F)[C@H](N)C3)nc3cc(F)c(F)cc32)C1` (stereo partly drawn) [Example 648, 2-(2-((3R,4R)-3-amino-4-fluoropiperidin-1-yl)-5,6-difluoro-1H-benzo[d]imidazol-1-yl)-1-(3-hydroxy-3-methylpyrrolidin-1-yl)ethanone]: 3350 nM.

As to `CS(=O)(=O)N1CCN(C(=O)Cn2c(N3CC[C@@H](F)[C@H](N)C3)nc3cc(F)c(F)cc32)CC1` [Example 649, 2-(2-((3R,4R)-3-amino-4-fluoropiperidin-1-yl)-5,6-difluoro-1H-benzo[d]imidazol-1-yl)-1-(4-(methylsulfonyl)piperazin-1-yl)ethanone], the IC50 was above 3750 nM.

For `CN(C(=O)Cn1c(N2CC[C@@H](F)[C@H](N)C2)nc2cc(F)c(F)cc21)C1CCS(=O)(=O)CC1` [Example 651, 2-(2-((3R,4R)-3-amino-4-fluoropiperidin-1-yl)-5,6-difluoro-1H-benzo[d]imidazol-1-yl)-N-(1,1-dioxidotetrahydro-2H-thiopyran-4-yl)-N-methylacetamide], the IC50 was above 3750 nM. Regarding `CC(C)(C#N)C1CCN(C(=O)Cn2c(N3CC[C@@H](F)[C@H](N)C3)nc3cc(F)c(F)cc32)CC1` [Example 653, 2-(1-(2-(2-((3R,4R)-3-amino-4-fluoropiperidin-1-yl)-5,6-difluoro-1H-benzo[d]imidazol-1-yl)acetyl)piperidin-4-yl)-2-methylpropanenitrile], the IC50 is above 3750 nM. Next, `CNC(=O)C1CCCN(C(=O)Cn2c(N3CC[C@@H](F)[C@H](N)C3)nc3cc(F)c(F)cc32)C1` (stereo partly drawn) [Example 654, 1-(2-(2-((3R,4R)-3-amino-4-fluoropiperidin-1-yl)-5,6-difluoro-1H-benzo[d]imidazol-1-yl)acetyl)-N-methylpiperidine-3-carboxamide]: above 3750 nM; `N[C@@H]1CN(c2nc3cc(F)c(F)cc3n2CC(=O)N(CCO)Cc2cccnc2)CC[C@H]1F` [Example 655, 2-(2-((3R,4R)-3-amino-4-fluoropiperidin-1-yl)-5,6-difluoro-1H-benzo[d]imidazol-1-yl)-N-(2-hydroxyethyl)-N-(pyridin-3-ylmethyl)acetamide]: above 3750 nM; `N#CCCN(C(=O)Cn1c(N2CC[C@@H](F)[C@H](N)C2)nc2cc(F)c(F)cc21)C1CCOCC1` [Example 656]: above 3750 nM.

With `CN(C)C(=O)C1CCCN(C(=O)Cn2c(N3CC[C@@H](F)[C@H](N)C3)nc3cc(F)c(F)cc32)C1` (stereo partly drawn) [Example 657, 1-(2-(2-((3R,4R)-3-amino-4-fluoropiperidin-1-yl)-5,6-difluoro-1H-benzo[d]imidazol-1-yl)acetyl)-N,N-dimethylpiperidine-3-carboxamide], the IC50 was above 3750 nM. Next, `COCC1(C#N)CCN(C(=O)Cn2c(N3CC[C@@H](F)[C@H](N)C3)nc3cc(F)c(F)cc32)CC1` [Example 658, 1-(2-(2-((3R,4R)-3-amino-4-fluoropiperidin-1-yl)-5,6-difluoro-1H-benzo[d]imidazol-1-yl)acetyl)-4-(methoxymethyl)piperidine-4-carbonitrile]: above 3750 nM; `N[C@@H]1CN(c2nc3cc(F)c(F)cc3n2CC(=O)N2CCN3C(=O)OCC3C2)CC[C@H]1F` (stereo partly drawn) [Example 659, 7-(2-(2-((3R,4R)-3-amino-4-fluoropiperidin-1-yl)-5,6-difluoro-1H-benzo[d]imidazol-1-yl)acetyl)tetrahydro-1H-oxazolo[3,4-a]pyrazin-3(5H)-one]: above 3750 nM; `N[C@@H]1CN(c2nc3ccc(F)cc3n2CC(=O)Nc2nccs2)CC[C@H]1F` [Example 660, 2-(2-((3R,4R)-3-amino-4-fluoropiperidin-1-yl)-6-fluoro-1H-benzo[d]imidazol-1-yl)-N-(thiazol-2-yl)acetamide]: 5.04 nM. To `N[C@@H]1CN(c2nc3ccc(F)cc3n2CC(=O)NCC(F)(F)F)CC[C@H]1F` [Example 661, 2-(2-((3R,4R)-3-amino-4-fluoropiperidin-1-yl)-6-fluoro-1H-benzo[d]imidazol-1-yl)-N-(2,2,2-trifluoroethyl)acetamide] belongs 279 nM. Regarding `N[C@@H]1CN(c2nc3ccc(F)cc3n2CC(=O)N(CC(F)(F)F)C2CC2)CC[C@H]1F` [Example 662, 2-(2-((3R,4R)-3-amino-4-fluoropiperidin-1-yl)-6-fluoro-1H-benzo[d]imidazol-1-yl)-N-cyclopropyl-N-(2,2,2-trifluoroethyl)acetamide], the IC50 was 283 nM. To `COCCN(C)C(=O)Cn1c(N2CC[C@@H](F)[C@H](N)C2)nc2ccc(F)cc21` [Example 663, 2-(2-((3R,4R)-3-amino-4-fluoropiperidin-1-yl)-6-fluoro-1H-benzo[d]imidazol-1-yl)-N-(2-methoxyethyl)-N-methylacetamide] belongs 294 nM; to `CN(C(=O)Cn1c(N2CC[C@@H](F)[C@H](N)C2)nc2ccc(F)cc21)[C@H]1CCOC1` [Example 664, 2-(2-((3R,4R)-3-amino-4-fluoropiperidin-1-yl)-6-fluoro-1H-benzo[d]imidazol-1-yl)-N-methyl-N-((S)-tetrahydrofuran-3-yl)acetamide], 555 nM; to `CN(C(=O)Cn1c(N2CC[C@@H](F)[C@H](N)C2)nc2ccc(F)cc21)[C@@H]1CCOC1` [Example 665, 2-(2-((3R,4R)-3-amino-4-fluoropiperidin-1-yl)-6-fluoro-1H-benzo[d]imidazol-1-yl)-N-methyl-N-((R)-tetrahydrofuran-3-yl)acetamide], 584 nM. For the molecule `C[C@H](NC(=O)Cn1c(N2CC[C@@H](F)[C@H](N)C2)nc2ccc(F)cc21)c1ccccn1` [Example 666, 2-(2-((3R,4R)-3-amino-4-fluoropiperidin-1-yl)-6-fluoro-1H-benzo[d]imidazol-1-yl)-N-((S)-1-(pyridin-2-yl)ethyl)acetamide], the IC50 was 687 nM. Next, `N[C@@H]1CN(c2nc3ccc(F)cc3n2CC(=O)N(CC(F)(F)F)[C@H]2CCOC2)CC[C@H]1F` [Example 667, 2-(2-((3R,4R)-3-amino-4-fluoropiperidin-1-yl)-6-fluoro-1H-benzo[d]imidazol-1-yl)-N-((S)-tetrahydrofuran-3-yl)-N-(2,2,2-trifluoroethyl)acetamide]: 745 nM; `N[C@@H]1CN(c2nc3ccc(F)cc3n2CC(=O)NC2CCC2)CC[C@H]1F` [Example 668, 2-(2-((3R,4R)-3-amino-4-fluoropiperidin-1-yl)-6-fluoro-1H-benzo[d]imidazol-1-yl)-N-cyclobutylacetamide]: 778 nM.
